Laboratory results reported in article PMC6368574, “Probing the Inhibition of Microtubule Affinity Regulating Kinase 4 by N-Substituted Acridones” (Scientific Reports, 2019).
Like-named read-outs stand apart in the source and are kept apart here. Each block holds one compound with its values, some of them ahead of it.

Experiments:
HepG2 cells = test: MTT cell viability assay, HepG2; type: cell-based; conditions: Homo sapiens, Table S2
Method: (§1) Initially, all synthesized acridone derivatives were evaluated for their cytotoxicity potential on MCF-7, HepG2 and HEK293 cell lines by MTT assay. These synthesized acridone derivatives were screened in the concentration range of 0–200 µM, for 24 and 48 h. […] It was also interesting that in the studied […] concentration range these compounds don’t show considerable cytotoxicity towards HEK293 cell lines. […] Thus, compounds 5, 7b, 7d, 7f and 7h were taken for further cell based studies such as apoptosis and reactive oxygen species (ROS) production.
(§2) To study the effect of synthesized acridone derivatives on cell viability and proliferation, a standard MTT method was carried out. Cells were plated (8000–9000/well) in a 96-well plate and incubated overnight. On the next day, cells were treated with increasing concentrations (0.1–80 μM) of synthesized acridone derivatives in a final volume of 200 µl for 48 h at 37 °C in a humidified chamber. At the end of treatment time point, 20 µl of MTT solution (from 5 mg/ml stock solution in phosphate buffer saline, pH 7.4) was added to each well and incubated further for 4–5 h at 37 °C in the CO2 incubator. After stipulated time the supernatant was aspirated and the colored formazan crystal produced as a result of MTT reduction was dissolved in 100 µl of DMSO. The absorbance (A) of colored product was then measured at 570 nm on a multiplate ELISA reader (BioRad). The percentage of viable cells was calculated and used to estimate the IC50 (50% inhibitory concentration) values for each acridone derivative. For cell proliferation studies paclitaxel has been taken as positive control.

recombinant MARK4 [1] = biological target: T1, recombinant MARK4 (Homo sapiens, UniProt Q96L34); test: Fluorescence binding (quenching, modified Stern-Volmer); conditions: Table S3; fluorescence binding; read-out: Binding affinity (Ka) (converted)
T1 construct: made in house; host or cells: bacterial cells (Luria-Bertani broth, IPTG induction)
T1 sequence (Q96L34 1-752): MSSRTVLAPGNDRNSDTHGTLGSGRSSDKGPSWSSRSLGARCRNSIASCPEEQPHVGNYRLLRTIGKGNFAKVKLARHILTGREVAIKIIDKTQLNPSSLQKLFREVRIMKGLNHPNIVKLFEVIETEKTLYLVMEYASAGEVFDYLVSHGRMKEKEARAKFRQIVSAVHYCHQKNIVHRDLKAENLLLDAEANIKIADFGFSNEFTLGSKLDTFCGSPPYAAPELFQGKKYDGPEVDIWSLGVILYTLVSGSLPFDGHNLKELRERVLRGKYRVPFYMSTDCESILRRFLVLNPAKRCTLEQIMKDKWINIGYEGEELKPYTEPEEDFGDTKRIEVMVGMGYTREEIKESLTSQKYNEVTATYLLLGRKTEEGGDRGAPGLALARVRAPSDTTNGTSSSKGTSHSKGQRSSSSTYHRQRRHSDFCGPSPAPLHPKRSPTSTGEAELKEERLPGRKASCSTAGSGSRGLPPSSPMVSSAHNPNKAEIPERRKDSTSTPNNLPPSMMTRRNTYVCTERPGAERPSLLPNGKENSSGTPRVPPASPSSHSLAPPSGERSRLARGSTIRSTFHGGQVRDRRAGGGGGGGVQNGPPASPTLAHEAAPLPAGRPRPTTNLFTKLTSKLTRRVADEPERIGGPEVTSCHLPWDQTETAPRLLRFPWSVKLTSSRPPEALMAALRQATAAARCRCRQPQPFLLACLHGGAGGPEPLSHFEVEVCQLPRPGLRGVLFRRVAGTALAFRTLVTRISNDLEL
Method: To determine the binding affinities of the synthesized acridones with MARK4, we used fluorescence emission spectra measurements. Protein sample was excited at 280 nm and emission was measured in 300–400 nm range with increasing concentrations of each acridone derivative (0–100 µM). A significant decrease in fluorescence intensity of MARK4 with increasing concentrations of each compound was fitted in the modified Stern-Volmer equation to calculate the binding constant, Ka and the number of binding sites per protein molecule (n). All the synthesized acridones have been screened (Supplementary Fig. S6, S7 and Table S3) and those with the highest affinity have been selected (compounds 5, 7b, 7d, 7f and 7h) for further evaluation (Fig. 3). The binding constants of compound 5, 7b, 7d, 7f and 7h were estimated as 6.3 × 10^4 M^−1, 1.0 × 10^6 M^−1, 1.0 × 10^6 M^−1, 1.9 × 10^6 M^−1, and 3.1 × 10^5 M^−1, respectively (Fig. 3).
Figure 3 Fluorescence binding studies of compound 5, 7b, 7d, 7f and 7h with MARK4. (A) Fluorescence emission spectra of MARK4 (10 µM) with increasing concentrations of the respective compound (5, 7b, 7d, 7f and 7h). Excitation wavelength was fixed at 280 nm and emission was recorded in 300–400 nm range. (B) Modified Stern-Volmer plot obtained from fluorescence quenching of MARK4 by compound 5, 7b, 7d, 7f and 7h, respectively. It was used to calculate binding affinity (Ka) and number of binding sites (n).
Binding affinities of synthesized acridone derivatives with recombinant MARK4 was carried out by observing the fluorescence intensity change of emission spectrum of MARK4 by following our previously published protocol[44],[45]. Each titration of protein was performed in triplicates and the average was taken for analysis. A significant decreased in fluorescence intensity of protein with increase in the concentration of acridone derivatives were used as the criteria for deducing the binding constant (Ka) as well as number of binding sites (n) present on the protein molecule using the modified Stern-Volmer equation[46]:1 log(Fo−F)/F=logKa+nlog[L] where, Fo = Fluorescence intensity of native protein, F = Fluorescence intensity of protein in the presence of ligand, Ka = Binding constant, n = number of binding sites, L = concentration of ligand. The values for Ka and n were derived from the intercept and slope, respectively.

MCF-7 cells = test: MTT cell viability assay, MCF-7; type: cell-based; conditions: Homo sapiens, MCF7; Table S2; MTT; read-out: IC50 (µM) MCF-7
Method: as §1, §2

recombinant MARK4 [2] = biological target: T1, recombinant MARK4; test: ATPase enzyme inhibition assay (Malachite Green); type: biochemical
Method: To evaluate the inhibition activity of synthesized acridone derivatives against recombinant MARK4, ATPase enzyme inhibition assay was performed (Table S3). […] Our studies were initiated by replacing the ester group of 5 with sterically and electronically diverse amines affording the corresponding amides 7a–j, in order to establish favorable interactions with residues Ala135, Val70, Asp196 and/or Glu182. […] In this case, the docking studies indicate a better fit of 7h compared with 7g in the active site of MARK4 with a binding energy of −9.5 kcal/mol and a stronger predicted hydrogen bond with Ala135 (3.06 Å for 7h, 3.19 Å for 7g).
Enzyme activity of MARK4 was evaluated with the help of standard Malachite Green (Biomol Green reagent, Enzo Life Sciences) microtitre-plate assay as described earlier. Estimated amount of MARK4 (200 ng) and 20 µM ATP as a substrate were incubated for 10–15 min at 25 °C with increasing concentrations (0–20 µM) of synthesized acridone derivatives, in 20 mM Tris buffer, pH 8.0. Reaction was terminated by the adding 100 µl of Biomol Green reagent and absorbance of final reaction products was recorded at 620 nm in a multiplate ELSIA reader (BioRad). In order to quantify the hydrolyzed phosphate, inorganic phosphate standard curve were prepared from the phosphate standard solutions as supplied by the manufacturer (Biomol Green reagent, Enzo Life Sciences). All data points represent triplicate measurements from at least three independent experiments.

HEK293 cells = test: MTT cell viability assay, HEK293; type: cell-based; conditions: Homo sapiens, Table S2
Method: as §1, §2

MARK2 = system: MARK2; design: method as in PMID 21984823; conditions: cited from earlier work
[3] = Table S3, read-out: IC50, (µM), for MARK4 Inhibition
[4] = ATPase inhibition, 20 µM ATP, read-out: IC50 against MARK4

Structure (SMILES): N#Cc1ccc(NC(=O)Cn2c3ccccc3c(=O)c3ccccc32)cc1 [Compound 30197]
IC50 (MARK2): < 10 µM

Structure (SMILES): COc1ccc2c(c1)c(=O)c1ccccc1n2CC(=O)Nc1cccc(C(F)(F)F)c1 [Compound 30019]
IC50 (MARK2): < 10 µM

Structure (SMILES): O=C(Cn1c2ccccc2c(=O)c2ccccc21)Oc1ccccc1F [Compound 30195]
IC50 (MARK2): < 10 µM

Structure (SMILES): CCOC(=O)c1cnc(NC(=O)Cn2c3ccccc3c(=O)c3ccccc32)s1 [Compound 30199]
IC50 (MARK2): < 10 µM

More lines, main results first:

IC50 (HepG2 cells): 19.4 µM | Kd (recombinant MARK4 [1]): 501 µM | IC50 (MCF-7 cells): 11.9 µM | MARK4 inhibition, comparison in words (recombinant MARK4 [2]; ATPase inhibition): much weaker inhibitor | IC50 (recombinant MARK4 [2]; [3]): > 20 µM | melting point: 131 to 141 °C
Structure (SMILES): Cc1ccc2c(c1)c(=O)c1ccccc1n2CC(=O)N(C)Cc1ccccc1 [Compound 7c, N-benzyl-N-methyl-2-(2-methyl-9-oxoacridin-10(9 H)-yl)acetamide]
IC50 (HEK293 cells): > 200 µM

IC50 (HepG2 cells): 25.1 µM | Kd (recombinant MARK4 [1]): 1580 µM | IC50 (MCF-7 cells): 14.1 µM | IC50 (recombinant MARK4 [2]; [4]): > 20 µM
Structure (SMILES): COC(=O)c1ccc(NC(=O)Cn2c3ccccc3c(=O)c3cc(C)ccc32)cc1 [Compound 7i, Methyl 4-(2-(2-methyl-9-oxoacridin-10(9H)-yl)acetamido)benzoate]
IC50 (HEK293 cells): > 200 µM

IC50 (HepG2 cells): 21.2 µM | Kd (recombinant MARK4 [1]): 158 µM | IC50 (MCF-7 cells): 14.3 µM | IC50 (recombinant MARK4 [2]; [4]): > 20 µM | IC50 (recombinant MARK4 [2]; [3]): > 20 µM | melting point: 282 to 286 °C
Structure (SMILES): COc1ccc(NC(=O)Cn2c3ccccc3c(=O)c3cc(C)ccc32)cc1 [Compound 7g, N-(4-methoxyphenyl)-2-(2-methyl-9-oxoacridin-10(9H)-yl)acetamide]
IC50 (HEK293 cells): > 200 µM

IC50 (HepG2 cells): 24.3 µM | Kd (recombinant MARK4 [1]): 501 µM | IC50 (MCF-7 cells): 12.3 µM | IC50 (recombinant MARK4 [2]; [3]): > 20 µM
Structure (SMILES): Cc1ccc2c(c1)c(=O)c1ccccc1n2CC(=O)N1CCOCC1 [Compound 7a, 2-Methyl-10-(2-morpholino-2-oxoethyl)acridin-9(10H)-one]
IC50 (HEK293 cells): > 200 µM

IC50 (HepG2 cells): 23.8 µM | Kd (recombinant MARK4 [1]): 1580 µM | IC50 (MCF-7 cells): 13.8 µM | MARK4 inhibition, comparison in words (recombinant MARK4 [2]; ATPase inhibition): less potent than 7b | IC50 (recombinant MARK4 [2]; [3]): > 20 µM | melting point: 290 to 293 °C
Structure (SMILES): Cc1ccc2c(c1)c(=O)c1ccccc1n2CC(=O)Nc1ccccc1 [Compound 7e, 2-(2-Methyl-9-oxoacridin-10(9H)-yl)-N-phenylacetamide]
IC50 (HEK293 cells): > 200 µM

IC50 (HepG2 cells): 24.4 µM | Kd (recombinant MARK4 [1]): 501 µM | IC50 (MCF-7 cells): 16.3 µM | IC50 (recombinant MARK4 [2]; [4]): > 20 µM | melting point: 306 to 309 °C
Structure (SMILES): CC(=O)c1ccc(NC(=O)Cn2c3ccccc3c(=O)c3cc(C)ccc32)cc1 [Compound 7j, N-(4-acetylphenyl)-2-(2-methyl-9-oxoacridin-10(9H)-yl)acetamide]
IC50 (HEK293 cells): > 200 µM
